Values of other authors in US6485765B1, “Lactational performance of dairy cattle” (Church & Dwight Co., Inc., priority 2000, dated 2002).

Tested on: heat stressed dairy cows
Conditions: per every 1% increase in K, potassium carbonate as source of dietary K

Structure (SMILES): O=C([O-])[O-].[K+].[K+] [potassium carbonate]
- increase of fat-corrected milk: 8.9 lbs/day
